# Patent US20210113501A1, “METHOD OF ADMINISTERING BETA-HYDROXY-BETA-METHYLBUTYRATE (HMB)” (Metabolic Technologies, Inc., priority 2009, published 2021)
# Assays:
# Assay type in all cases: in vivo, human
# [1] = Example 3: plasma HMB with probiotic supplementation; conditions: 0.8 g HMB-FA vs 1.0 g CaHMB; before and after 14 days of probiotic
# Description: A study was conducted to examine the bioavailability of HMB-acid and CaHMB when also administering a probiotic. Six volunteers were tested before and after two weeks of probiotic supplementation. Between trials, each volunteer took one dose of probiotics (BC^30) every morning for 14 days. At each trial, baseline plasma HMB levels were measured, then gave each volunteer one serving of HMB (1.0 g of CaHMB or 0.8 g of HMB-FA). Plasma HMB levels were measured at 2, 5, 10, 15, 25, 35, 45, 60, 90, 120, 150, and 180 min, as well as at 6, 12, and 24 hours.
# [2] = 12-week periodized resistance-training study of HMB-FA: strength and power
# Description: The current study was a randomized, double-blind, placebo- and diet-controlled experiment consisting of a 12-week-periodized resistance-training program. The training protocol was divided into three phases and consisted of a non-linear-periodized resistance-training program for the first 8 weeks, followed by a 2-week overreaching cycle, and finally a 2-week taper of the training volume. Muscle mass, body composition, strength, power, resting plasma testosterone, cortisol, and creatine kinase (CK) levels were examined collectively at the end of weeks 0, 4, 8, and 12 to assess the chronic effects of HMB; these measures were also assessed at the end of weeks 9 and 10, corresponding to the mid- and endpoints of the phase 2 overreaching cycle.
# Twenty-four resistance-trained males were tested and included in the study. Subjects were organized into quartile blocks based on their LBM and strength. Following this, each quartile was randomized to one of the treatment groups using computer-generated random numbers. After treatment assignment, the groups were assessed to confirm there were no differences between groups. Of those randomized to the treatments, three subjects dropped from the placebo group, two because of injury and one because of the time commitment, while one dropped from the HMB-FA group due to injury. All drop outs occurred during the first 4 weeks of the study. The remaining 20 subjects (21.6±0.5 years of age) consisting of nine placebo (87.1±4.8 kg; 180.9 cm) and 11 supplemented (83.1±2.8 kg; 179.0±2.1) males with an average squat, bench press, and deadlift of 1.7±0.04, 1.3±0.04, and 2.0±0.05 times their bodyweight, respectively, completed the study. There were no significant differences for age, body weight, height, or BMI between the treatment groups at the start of the study
# Strength was assessed via a one-repetition maximum (1-RM) testing of the back squat, bench press, and deadlift. The intraclass correlation coefficient (ICC) for the test-retest of strength in the squat, bench press, and deadlift ranged from r=0.956 to 0.982. Body composition [LBM, fat mass (FM), and total mass] was determined on a Lunar Prodigy dual X-ray absorptiometry (DXA) apparatus (software version, enCORE 2008, Madison, Wis., USA). Tests for the DXA were performed at the same time of day in a fasted state and the ICC was r=0.981. Skeletal muscle hypertrophy was assessed via changes in ultrasonography (GE Logiq e 2008, Wauwatosa, Wis., USA) determined combined muscle thickness of the vastus lateralis (VL) and vastus intermedius (VI) muscles. The ICC for the test-retest of muscle thickness measurements was r=0.975.
# Peak power (PP) was assessed during maximal cycling (modified Wingate test) and jumping movements. During the cycling test, the volunteer was instructed to cycle against a predetermined resistance (7.5% of body weight) as fast as possible for 10 s on a cycle ergometer (Monark model 894e, Vansbro, Sweden). Wingate PP was recorded using Monark anaerobic test software (Version 1.0, Monark, Vansbro, Sweden). From completion of Wingate tests performed over several days, the ICC for Wingate PP was 0.966.
# Measurements of PP for the vertical jump were also taken on a multicomponent AMTI force platform (Advanced Mechanical Technology, Watertown, Mass. USA) which interfaced with a personal computer at a sampling rate of 1,000 Hz). Data acquisition software (LabVIEW, version 7.1; National Instruments Corporation, Austin, Tex., USA) was used to calculate vertical jump PP. The ICC for VJ PP was 0.971.
# Prior to the study, participants were randomly assigned to receive either 3 g per day of HMB-FA or a placebo divided equally into three servings. Each serving was formulated with 1 g of HMB-FA. The first serving was given 30 min prior to exercise and the remaining two servings given with the mid-day and evening meals. On the non-training days, participants were instructed to consume one serving with each of three separate meals throughout the day. […]
# [3] = Comparison of the CaHMB and HMB-acid strength studies; conditions: comparison of two separate studies
# Description: A study was conducted to examine the effects of CaHMB on strength. A second study was conducted to examine the effects of HMB-acid on strength. The results of these studies were then compared to determine the improved efficacy of HMB-acid over CaHMB on increasing strength gains.
# Thirty-two male volunteers 19-22 yr of age were selected for the study. Body weight averaged 99.3±3.4 kg with a range of 72-136 kg and height was 185±1.5 cm with a range of 170-198 cm. Almost all subjects were engaged in some form of exercise program before the study.
# Body composition was measured with TOBEC except that all subjects were measured after an overnight fast. Measurements were made on the Friday morning before the start of the experiment and each Friday thereafter. Strength measurements were made the week before the study and consisted of three standard strength measurements: the bench press, the squat, and the hang clean. Treatments and exercise regimens were started on Monday. The exercise regimen consisted of weight training 6 day s/wk, which included work on all major muscle groups, and lasted from 2 to 3 h/day. Aerobic training was also included in the exercise workout at least three times per week. […]
# Differences between the two treatment groups were determined with at-test. […] Trends were determined for 0.05<P<0.11, and differences were considered not significant for P>0.11. […]
# [4] = after 12 weeks of training, 3 g per day
smiles,measurement,setting,value
"CC(C)(O)CC(=O)O [HMB-acid, 3-hydroxy-3-methylbutyric acid]","time to peak plasma HMB, retention and bioavailability versus CaHMB",[1],"faster time to peak plasma levels, greater retention of HMB, and improved bioavailability"
same,increase in vertical jump power,[2]; after 12 weeks,19%
same,"strength increase, bench press",[2]; [4],12%
same,"strength increase, deadlift",[2]; [4],16%
same,"strength increase, squat",[2]; [4],25%
same,"strength increase, total strength",[2]; [4],18%
same,increase in Wingate peak power,[2]; over the 12-week study,18%
same,total strength increase,"[2]; over the 12-week study, 3 g per day",77.1 ± 18.4 kg
same,"net percent increase per week in squat and bench press, greater than with CaHMB",[3],~80%
